Measurements published in patent US20220218700A1, “COMBINATION OF AN ?2-ADRENOCEPTOR SUBTYPE C (ALPHA-2C) ANTAGONISTS WITH A TASK1/3 CHANNEL BLOCKER FOR THE TREATMENT OF SLEEP APNEA” (Bayer Aktiengesellschaft, priority 2019, published 2022).

System: upper airway collapsibility
Experiment: pig model of obstructive sleep apnea (OSA): collapse of the upper respiratory tract induced by negative pressure in anaesthetized, spontaneously breathing pigs
Format: in vivo, German Landrace pigs
Settings: for effect on upper airway collapsibility: all negative pressures of −50, −100 and −150 cm H2O
Excerpt: The therapeutic potential of the combination of an α2-Adrenoceptor subtype C (alpha-2C) antagonists with a TASK1/3 channel blocker according to the present invention in sleep apnea has been assessed preclinically in a pig model of obstructive sleep apnea (OSA).
Using negative pressure. it is possible to induce collapse and thus obstruction of the upper respiratory tract in anaesthetized, spontaneously breathing pigs (Wirth K. J. et al., Sleep 36(5) (2013) pp. 699-708).
German Landrace pigs are used for the model. The pigs are anaesthetized and tracheotomized. Two tracheal cannulas are inserted into the trachea, one into the rostral part and the other into the caudal part of the trachea. Using a connection piece. the rostral cannula is connected to a tube to the negative pressure device and to the distal tracheal cannula. The distal tracheal cannula is additionally connected to a tube with an open end to atmosphere via a connection piece that served for free tracheal breathing, circumventing the upper airway. By appropriate opening and clamping of those tubes breathing can be switched from nasal breathing to breathing through the caudal tracheal cannula, circumventing the upper airway. and the (isolated) upper airway can be connected to the negative pressure device, causing airflow in the inspiratory direction.
At certain points in time. the collapsibility of the upper respiratory tract is tested by having the pig breathe via the caudal cannula and applying negative pressures of −50, −100 and −150 cm water head (cm H2O) to the upper respiratory tract. This causes the upper respiratory tract to collapse, which manifests itself in an interruption of the airflow and a pressure drop in the tube system. This test is conducted prior to the administration of the test substance and at certain intervals after the administration of the test substance. An appropriately effective test substance can prevent this collapse of the respiratory tract in the inspiratory phase.

[1] = time 60 min after intranasal administration of 0.3 μg, TASK1/3 blocker alone
[2] = time 0 min (time point of i.v. bolus/start of infusion of alpha-2C antagonist)
[3] = time 10 min after i.v. bolus and start of i.v. infusion 0.13 μg/kg/h of alpha-2C antagonist, before nasal TASK1/3 blocker
[4] = time 30 min after i.v. bolus and start of i.v. infusion 0.13 μg/kg/h of alpha-2C antagonist, before nasal TASK1/3 blocker
[5] = time 60 min after i.v. bolus and start of i.v. infusion 0.13 μg/kg/h of alpha-2C antagonist, before nasal TASK1/3 blocker
[6] = time 90 min after i.v. bolus and start of i.v. infusion 0.13 μg/kg/h of alpha-2C antagonist, before nasal TASK1/3 blocker
[7] = time 120 min after i.v. bolus and start of i.v. infusion 0.13 μg/kg/h of alpha-2C antagonist, before nasal TASK1/3 blocker
[8] = time 150 min after i.v. bolus and start of i.v. infusion 0.13 μg/kg/h of alpha-2C antagonist, before nasal TASK1/3 blocker

COc1cccc(C(=O)N2CCN(Cc3c(-c4ccc(Cl)cc4)nc4ccccn34)CC2)n1 [(4-{[2-(4-Chlorophenyl)imidazo[1,2-a]pyridin-3-yl]methyl}piperazin-1-yl)(6-methoxypyridin-2-yl)methanone]
effectiveness of the dose on upper airway collapsibility (TASK1/TASK3 channel blocker alone, 0.3 μg): non effective dose
Percent pigs without collaps −50 cm H2O [1]: 0%
Percent pigs without collaps −100 cm H2O [1]: 0%
Percent pigs without collaps −150 cm H2O [1]: 0%

COCc1cccnc1N1CCN(C[C@H]2COc3ccccc3O2)CC1 [(S)-1-((2,3-dihydrobenzo[b][1,4]dioxin-2-yl)methyl)-4-(3-(methoxymethyl)pyridin-2-yl)piperazine]
effectiveness of the dose on upper airway collapsibility (alpha-2C antagonist alone, i.v. bolus 0.3μg/kg + i.v. infusion 0.13 μg/kg/h): non effective dose
effect on upper airway collapsibility (i.v. bolus 0.3μg/kg + i.v. infusion 0.13 μg/kg/h for five hours, only at time point 30 min after bolus and start of infusion): inhibited upper airway collapsibility
effect on upper airway collapsibility (i.v. bolus 0.3μg/kg + i.v. infusion 0.13 μg/kg/h, time point 120 min after bolus and start of infusion): upper airway collapsibility was induced
Percent pigs without collaps −50 cm H2O [2]: 0%
Percent pigs without collaps −100 cm H2O [2]: 0%
Percent pigs without collaps −150 cm H2O [2]: 0%
Percent pigs without collaps −50 cm H2O [3]: 0%
Percent pigs without collaps −100 cm H2O [3]: 0%
Percent pigs without collaps −150 cm H2O [3]: 0%
Percent pigs without collaps −50 cm H2O [4]: 100%
Percent pigs without collaps −100 cm H2O [4]: 100%
Percent pigs without collaps −150 cm H2O [4]: 100%
Percent pigs without collaps −50 cm H2O [5]: 100%
Percent pigs without collaps −100 cm H2O [5]: 100%
Percent pigs without collaps −150 cm H2O [5]: 50%
Percent pigs without collaps −50 cm H2O [6]: 50%
Percent pigs without collaps −100 cm H2O [6]: 0%
Percent pigs without collaps −150 cm H2O [6]: 0%
Percent pigs without collaps −50 cm H2O [7]: 0%
Percent pigs without collaps −100 cm H2O [7]: 0%
Percent pigs without collaps −150 cm H2O [7]: 0%
Percent pigs without collaps −50 cm H2O [8]: 0%
Percent pigs without collaps −100 cm H2O [8]: 0%
Percent pigs without collaps −150 cm H2O [8]: 0%
